For one compound, Activity results are on record in ChEMBL document CHEMBL1142966, “Enhanced antileukemic activity of the novel complex 2,5-dihydroxybenzoate molybdenum(VI) against 2,5-dihydroxybenzoate, polyoxometalate of Mo(VI), and tetraphenylphosphonium in the human HL-60 and K562 leukemic cell lines” (J Med Chem, 2007).

Holding throughout (assay type): cell-based
The test system of series [1] is HL-60. Put plainly: Cytotoxicity against human HL60 cells at 100 ug/mL by trypan blue assay after 24 hrs. The conditions noted are these: hl-60, 24 h.
The subject of series [2] is HL-60. Put plainly: Cytotoxicity against human HL60 cells at 10 ug/mL by trypan blue assay after 48 hrs. The conditions noted are these: hl-60, 48 h.
In series [3] the test system is HL-60. Put plainly: Cytotoxicity against human HL60 cells at 100 ug/mL by trypan blue assay after 48 hrs. The conditions noted are these: hl-60, 48 h.
Series [4] has as its system K562. Put plainly: Cytotoxicity against human K562 cells at 10000 ug/mL by trypan blue assay after 48 hrs. The note with it: k562, 48 h.
Series [5] deals with K562. Put plainly: Cytotoxicity against human K562 cells at 100 ug/mL by trypan blue assay after 48 hrs. The note with it: k562, 48 h.
Series [6] relates to K562. Put plainly: Cytotoxicity against human K562 cells at 100 ug/mL by trypan blue assay after 24 hrs. The note with it: k562, 24 h.
Series [7] relates to HL-60. Put plainly: Cytotoxicity against human HL60 cells at 100 ug/mL by trypan blue assay after 72 hrs. The note with it: hl-60, 72 h.
Series [8] relates to HL-60. Put plainly: Cytotoxicity against human HL60 cells at 1000 ug/mL by trypan blue assay after 72 hrs. The conditions noted are these: hl-60, 72 h.
The test system of series [9] is HL-60. Put plainly: Cytotoxicity against human HL60 cells at 10000 ug/mL by trypan blue assay after 24 hrs. The conditions noted are these: hl-60, 24 h.
The test system of series [10] is HL-60. Put plainly: Cytotoxicity against human HL60 cells at 10 ug/mL by trypan blue assay after 72 hrs. The note with it: hl-60, 72 h.
Series [11] concerns K562. Put plainly: Cytotoxicity against human K562 cells at 10 ug/mL by trypan blue assay after 72 hrs. The note with it: k562, 72 h.
For series [12], the system named is K562. Put plainly: Cytotoxicity against human K562 cells at 1000 ug/mL by trypan blue assay after 48 hrs. The note with it: k562, 48 h.
The test system of series [13] is K562. Put plainly: Cytotoxicity against human K562 cells at 10 ug/mL by trypan blue assay after 48 hrs. The note with it: k562, 48 h.
The subject of series [14] is K562. Put plainly: Cytotoxicity against human K562 cells at 10 ug/mL by trypan blue assay after 24 hrs. The conditions noted are these: k562, 24 h.
For series [15], the system named is K562. Put plainly: Cytotoxicity against human K562 cells at 1000 ug/mL by trypan blue assay after 24 hrs. The conditions noted are these: k562, 24 h.
Series [16] concerns HL-60. Put plainly: Cytotoxicity against human HL60 cells at 1000 ug/mL by trypan blue assay after 24 hrs. The conditions noted are these: hl-60, 24 h.
Series [17] has as its system K562. Put plainly: Cytotoxicity against human K562 cells at 10000 ug/mL by trypan blue assay after 24 hrs. The conditions noted are these: k562, 24 h.
Series [18] deals with K562. Put plainly: Cytotoxicity against human K562 cells at 10000 ug/mL by trypan blue assay after 72 hrs. The note with it: k562, 72 h.
Series [19] has as its system K562. Put plainly: Cytotoxicity against human K562 cells at 1000 ug/mL by trypan blue assay after 72 hrs. The note with it: k562, 72 h.
Series [20] concerns HL-60. Put plainly: Cytotoxicity against human HL60 cells at 1000 ug/mL by trypan blue assay after 48 hrs. The note with it: hl-60, 48 h.
Series [21] concerns HL-60. Put plainly: Cytotoxicity against human HL60 cells at 10000 ug/mL by trypan blue assay after 72 hrs. The conditions noted are these: hl-60, 72 h.
In series [22] the test system is HL-60. Put plainly: Cytotoxicity against human HL60 cells at 10 ug/mL by trypan blue assay after 24 hrs. The conditions noted are these: hl-60, 24 h.
Series [23] concerns K562. Put plainly: Cytotoxicity against human K562 cells at 100 ug/mL by trypan blue assay after 72 hrs. The note with it: k562, 72 h.
Series [24] concerns HL-60. Put plainly: Cytotoxicity against human HL60 cells at 10000 ug/mL by trypan blue assay after 48 hrs. The conditions noted are these: hl-60, 48 h.

`[Cl-].c1ccc([P+](c2ccccc2)(c2ccccc2)c2ccccc2)cc1` [TETRAPHENYLPHOSPHONIUM CHLORIDE]: the Activity in the series with HL-60 [1] amounted to 4.5%; in the series on HL-60 [2], 100%; in the series on HL-60 [3], 100%; with K562 [4] it was 100%; in the series on K562 [5], 100%; with K562 [6], 41.8%. The Activity with HL-60 [7], in the series with HL-60 [8], in the series with HL-60 [9], with HL-60 [10], in the series with K562 [11] and in the series with K562 [12] was 100% each time. The Activity in the series with K562 [13] is on record as 100%; with K562 [14], 56.8%; in the series on K562 [15], 100%; in the series on HL-60 [16], 100%; in the series on K562 [17] it was 100%; with K562 [18], 100%. Besides, the Activity with K562 [19] is listed as 100%; with HL-60 [20], 100%; in the series with HL-60 [21], 100%; with HL-60 [22], 1%; with K562 [23] it was 100%; in the series with HL-60 [24], 100%.
